According to PMC7515946, “Targeting of Perforin Inhibitor into the Brain Parenchyma Via a Prodrug Approach Can Decrease Oxidative Stress and Neuroinflammation and Improve Cell Survival” (Molecular Neurobiology, 2020):

What was measured:
[1] = set-up: method as in PMID 31492955; settings: neurons, astrocytes, and microglia homogenates; cited from earlier work
[2] = set-up: method as in PMID 31492955; settings: cited from earlier work
[3] = set-up: method as in PMID 27266990; settings: during 5 h incubation; cited from earlier work
[4] = molecular target: T1, purified human β-site amyloid precursor protein (APP) cleaving enzyme 1 (BACE1) (Homo sapiens, UniProt P56817); experiment: BACE1 FRET inhibition assay; type: biochemical; settings: 1 and 10 μM, respectively, 30 min
T1 construct: purchased AnaSpec, Inc. (Fremont, CA, USA), SensoLyte 520 BACE1 Assay kit
T1 sequence (P56817 22-501 limits assumed): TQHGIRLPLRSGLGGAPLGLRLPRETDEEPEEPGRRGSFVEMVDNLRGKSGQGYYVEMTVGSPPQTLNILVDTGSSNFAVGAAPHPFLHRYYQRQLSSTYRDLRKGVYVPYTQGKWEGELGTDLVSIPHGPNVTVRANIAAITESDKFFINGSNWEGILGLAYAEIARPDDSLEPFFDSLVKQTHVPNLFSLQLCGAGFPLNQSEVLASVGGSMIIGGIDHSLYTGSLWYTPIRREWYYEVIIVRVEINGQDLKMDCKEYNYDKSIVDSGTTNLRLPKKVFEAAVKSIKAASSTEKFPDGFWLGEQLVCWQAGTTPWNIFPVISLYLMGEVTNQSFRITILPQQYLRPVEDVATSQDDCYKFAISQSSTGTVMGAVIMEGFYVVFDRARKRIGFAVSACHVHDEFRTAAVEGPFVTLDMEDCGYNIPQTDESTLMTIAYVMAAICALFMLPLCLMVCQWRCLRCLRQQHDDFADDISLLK
Excerpt: A fluorometric assay was used to screen the inhibitory effect of the studied compounds on purified human β-site amyloid precursor protein (APP) cleaving enzyme 1 (BACE1) using a fluorescence resonance energy transfer (FRET) peptide technique (SensoLyte© 520 BACE1 Assay kit, AnaSpec, Inc., Fremont, CA, USA) according to the manufacturer’s protocol. […] The sequence of the FRET peptide has been derived from the β-secretase cleavage site of β-amyloid precursor protein (APP) with Swedish mutation, which enhances β-secretase to process APP resulting in an early onset of AD. Thus, active β-secretase cleaved the FRET substrate into two separate fragments resulting in the release of HiLyte™ Fluor 488 fluorescence that was measured by the Envision plate reader (EnVision, Perkin Elmer, Waltham, MA, USA) at λex 490 nm and λem 520 nm.

| SMILES | Half-lives in brain cell homogenates [1] | Bioconversion half-life in primary mouse astrocyte homogenate [2] | Prodrug bioconverted in mouse brain S9 subcellular fraction [3] | Inhibition of BACE1 activity [4] |
| --- | --- | --- | --- | --- |
| N[C@H](Cc1cccc(C(=O)OCc2ccc(-c3ccc(-c4ccc5c(c4)COC5=O)s3)cc2)c1)C(=O)O [PFI-PD] | 4 to 6 h | approximately 6 h | approximately 50% |  |
| O=C1OCc2cc(-c3ccc(-c4ccc(CO)cc4)s3)ccc21 [PFI] |  |  |  | 71–96% |
